Patent US10765114B2, “4-amino-6-(pyridyl and 2-substitutedphenyl)-picolinates and 6-amino-2-(pyridyl and 2-substitutedphenyl)-pyrimidine-4-carboxylates and their use as herbicides” (Dow AgroSciences LLC, priority 2013, dated 2020)

Each compound was assayed on Key Grass and Sedge Weeds as well as Grass Crops (assay: Post-Emergent Test II (Table 6)). Conditions: post-emergence, 336 h, CYPSS, 140 g ai/ha, 14 days after application, read-out: Visual Growth Reduction (%) 14 Days After Application CYPSS.
Format: in vivo
Method in brief: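 Plants grown in a greenhouse (~15 h photoperiod, 23-29° C day) to first or second true leaf stage were sprayed post-emergence at 187 L/ha with compound in acetone/DMSO-based aqueous spray containing crop oil concentrate and surfactant, applied at a high rate plus ½× to 1/16× serial rates. Injury was scored visually 14 days later, 0-100% versus untreated plants.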

| Structure (SMILES) | pest or weed control at 140 g/ha [%] |
| --- | --- |
| COC(=O)c1nc(-c2ccc(Cl)c(OC)c2C(F)F)cc(N)c1Cl [Compound 60, methyl 4-amino-3-chloro-6-(4-chloro-2-(difluoromethyl)-3-methoxyphenyl)picolinate] | 30 to 44 |

Same assay, conditions: post-emergence, 336 h, DIGSA: crabgrass (Digitaria sanguinalis), 70 g ai/ha, 14 days after application, read-out: Visual Growth Reduction (%) 14 Days After Application DIGSA

| Structure (SMILES) | pest or weed control at 70 g/ha [%] |
| --- | --- |
| COC(=O)c1nc(-c2ccc(Cl)c(OC)c2C(F)F)cc(N)c1Cl [Compound 60, methyl 4-amino-3-chloro-6-(4-chloro-2-(difluoromethyl)-3-methoxyphenyl)picolinate] | 0 to 29 |

Same assay, conditions: post-emergence, 336 h, DIGSA: crabgrass (Digitaria sanguinalis), 140 g ai/ha, 14 days after application, read-out: Visual Growth Reduction (%) 14 Days After Application DIGSA

| Structure (SMILES) | pest or weed control at 140 g/ha [%] |
| --- | --- |
| COC(=O)c1nc(-c2ccc(Cl)c(OC)c2C(F)F)cc(N)c1Cl [Compound 60, methyl 4-amino-3-chloro-6-(4-chloro-2-(difluoromethyl)-3-methoxyphenyl)picolinate] | 30 to 44 |

Same assay, conditions: post-emergence, 336 h, ECHSS, 70 g ai/ha, 14 days after application, read-out: Visual Growth Reduction (%) 14 Days After Application ECHSS

| Structure (SMILES) | pest or weed control at 70 g/ha [%] |
| --- | --- |
| COC(=O)c1nc(-c2ccc(Cl)c(OC)c2C(F)F)cc(N)c1Cl [Compound 60, methyl 4-amino-3-chloro-6-(4-chloro-2-(difluoromethyl)-3-methoxyphenyl)picolinate] | 0 to 29 |

Same assay, conditions: post-emergence, 336 h, ECHSS, 140 g ai/ha, 14 days after application, read-out: Visual Growth Reduction (%) 14 Days After Application ECHSS

| Structure (SMILES) | pest or weed control at 140 g/ha [%] |
| --- | --- |
| COC(=O)c1nc(-c2ccc(Cl)c(OC)c2C(F)F)cc(N)c1Cl [Compound 60, methyl 4-amino-3-chloro-6-(4-chloro-2-(difluoromethyl)-3-methoxyphenyl)picolinate] | 30 to 44 |

Same assay, conditions: post-emergence, 336 h, ORYSS (crop), 70 g ai/ha, 14 days after application, read-out: Visual Growth Reduction (%) 14 Days After Application ORYSS

| Structure (SMILES) | pest or weed control at 70 g/ha [%] |
| --- | --- |
| COC(=O)c1nc(-c2ccc(Cl)c(OC)c2C(F)F)cc(N)c1Cl [Compound 60, methyl 4-amino-3-chloro-6-(4-chloro-2-(difluoromethyl)-3-methoxyphenyl)picolinate] | 0 to 29 |

Same assay, conditions: post-emergence, 336 h, ORYSS (crop), 140 g ai/ha, 14 days after application, read-out: Visual Growth Reduction (%) 14 Days After Application ORYSS

| Structure (SMILES) | pest or weed control at 140 g/ha [%] |
| --- | --- |
| COC(=O)c1nc(-c2ccc(Cl)c(OC)c2C(F)F)cc(N)c1Cl [Compound 60, methyl 4-amino-3-chloro-6-(4-chloro-2-(difluoromethyl)-3-methoxyphenyl)picolinate] | 0 to 29 |

Same assay, conditions: post-emergence, 336 h, SETFA: giant foxtail (Setaria faberi), 70 g ai/ha, 14 days after application, read-out: Visual Growth Reduction (%) 14 Days After Application SETFA

| Structure (SMILES) | pest or weed control at 70 g/ha [%] |
| --- | --- |
| COC(=O)c1nc(-c2ccc(Cl)c(OC)c2C(F)F)cc(N)c1Cl [Compound 60, methyl 4-amino-3-chloro-6-(4-chloro-2-(difluoromethyl)-3-methoxyphenyl)picolinate] | 0 to 29 |

Same assay, conditions: post-emergence, 336 h, SETFA: giant foxtail (Setaria faberi), 140 g ai/ha, 14 days after application, read-out: Visual Growth Reduction (%) 14 Days After Application SETFA

| Structure (SMILES) | pest or weed control at 140 g/ha [%] |
| --- | --- |
| COC(=O)c1nc(-c2ccc(Cl)c(OC)c2C(F)F)cc(N)c1Cl [Compound 60, methyl 4-amino-3-chloro-6-(4-chloro-2-(difluoromethyl)-3-methoxyphenyl)picolinate] | 0 to 29 |

Same assay, conditions: post-emergence, 336 h, SORVU: grain sorghum (Sorghum vulgare), 70 g ai/ha, 14 days after application, read-out: Visual Growth Reduction (%) 14 Days After Application SORVU

| Structure (SMILES) | pest or weed control at 70 g/ha [%] |
| --- | --- |
| COC(=O)c1nc(-c2ccc(Cl)c(OC)c2C(F)F)cc(N)c1Cl [Compound 60, methyl 4-amino-3-chloro-6-(4-chloro-2-(difluoromethyl)-3-methoxyphenyl)picolinate] | 0 to 29 |

Same assay, conditions: post-emergence, 336 h, SORVU: grain sorghum (Sorghum vulgare), 140 g ai/ha, 14 days after application, read-out: Visual Growth Reduction (%) 14 Days After Application SORVU

| Structure (SMILES) | pest or weed control at 140 g/ha [%] |
| --- | --- |
| COC(=O)c1nc(-c2ccc(Cl)c(OC)c2C(F)F)cc(N)c1Cl [Compound 60, methyl 4-amino-3-chloro-6-(4-chloro-2-(difluoromethyl)-3-methoxyphenyl)picolinate] | 45 to 59 |

Same assay, conditions: post-emergence, 336 h, TRZSS (crop), 70 g ai/ha, 14 days after application, read-out: Visual Growth Reduction (%) 14 Days After Application TRZSS

| Structure (SMILES) | pest or weed control at 70 g/ha [%] |
| --- | --- |
| COC(=O)c1nc(-c2ccc(Cl)c(OC)c2C(F)F)cc(N)c1Cl [Compound 60, methyl 4-amino-3-chloro-6-(4-chloro-2-(difluoromethyl)-3-methoxyphenyl)picolinate] | 0 to 29 |

Same assay, conditions: post-emergence, 336 h, TRZSS (crop), 140 g ai/ha, 14 days after application, read-out: Visual Growth Reduction (%) 14 Days After Application TRZSS

| Structure (SMILES) | pest or weed control at 140 g/ha [%] |
| --- | --- |
| COC(=O)c1nc(-c2ccc(Cl)c(OC)c2C(F)F)cc(N)c1Cl [Compound 60, methyl 4-amino-3-chloro-6-(4-chloro-2-(difluoromethyl)-3-methoxyphenyl)picolinate] | 0 to 29 |

Same assay, conditions: post-emergence, 336 h, ZEAMX: maize, corn (Zea mays), 70 g ai/ha, 14 days after application, read-out: Visual Growth Reduction (%) 14 Days After Application ZEAMX

| Structure (SMILES) | pest or weed control at 70 g/ha [%] |
| --- | --- |
| COC(=O)c1nc(-c2ccc(Cl)c(OC)c2C(F)F)cc(N)c1Cl [Compound 60, methyl 4-amino-3-chloro-6-(4-chloro-2-(difluoromethyl)-3-methoxyphenyl)picolinate] | 0 to 29 |

Same assay, conditions: post-emergence, 336 h, ZEAMX: maize, corn (Zea mays), 140 g ai/ha, 14 days after application, read-out: Visual Growth Reduction (%) 14 Days After Application ZEAMX

| Structure (SMILES) | pest or weed control at 140 g/ha [%] |
| --- | --- |
| COC(=O)c1nc(-c2ccc(Cl)c(OC)c2C(F)F)cc(N)c1Cl [Compound 60, methyl 4-amino-3-chloro-6-(4-chloro-2-(difluoromethyl)-3-methoxyphenyl)picolinate] | 0 to 29 |
